Measured values from US4288630A, “1-Hydroxymethyl-11,15-dihydroxy-prosten-1-ol-derivatives” (American Cyanamid Company, priority 1980, dated 1981).

How the values were obtained:
Format in all cases: in vivo, dog
Settings in all cases: Konzett data
[1] = tested on: Hist; assay: Konzett bronchodilator assay, Hist
[2] = tested on: 5-HT; assay: Konzett bronchodilator assay, 5-HT
[3] = tested on: Ach; assay: Konzett bronchodilator assay, Ach

In the case of `CCCCCC(C)(O)/C=C/C1C(O)CC(=O)C1C/C=C\CCCCO` (racemic) [dl-1,11,15-trihydroxymethyl-9-oxo-15-methyl-5-cis-13-trans prostadiene], the “Hist (ED50 g/kg)” value [1] is reported as 0.00075 g/kg, the “5-HT (ED50 g/kg)” value [2] is reported as 0.0083 g/kg and the “Ach (ED50 g/kg)” value [3] is reported as 0.0043 g/kg.
